# Legend:
# rabbit = settings: cited from earlier work; for effect on intraocular pressure: ophthalmic drops
# [1] = tested on: normotensive Dutch Belted rabbits; assay: Intraocular pressure (IOP) after single dose in normotensive rabbits; type: in vivo, rabbit; settings: 0.2% w/v
# Description: Water (pH 4.5, made isotonic with sodium chloride), was selected as vehicle for the IOP-studies.
# Five concentrations (0.01, 0.05, 0.2, 0.5 and 1.0% w/v) of CHF 1035 were studied. Brimonidine (0.2% w/v) was used as a positive, and vehicle (water pH 4.5) as a negative control.
# The experimental animals used were normotensive Dutch Belted rabbits of either gender (n=6). A single drop (25 μl) of the test solution was instilled unilaterally into the left eye (treated eye). IOP of the rabbits (treated and untreated eyes) was measured at 1 and 0 h before, and at 0.5, 1, 2, 3, 4, 5, 6 and 7 h after topical eyedrop administration. IOP at the time of eyedrop administration (0 h) was used as a baseline value. IOP was measured using a BioRad Pneumatonometer. More detailed description of the IOP measurement procedure can be found in Pharm. Res. 14, 1738-1743, 1997 and Curr. Eye Res. 14, 791-797, 1995. All the studies were set up using a randomized crossover design. At least 72 h of wash-out time was allowed for each rabbit between dosings. The irritation caused by an instilled eyedrop were evaluated by recording the extent of eyelid closure after topical eyedrop administration.
# [2] = in vivo; cited from earlier work
compound,measurement,setting,value
"CN(C)C1CCc2cc(O)c(O)cc2C1 (stereo not drawn) [N,N-dimethyl-6,7-dihydroxy-2-aminotetralin]",effect on intraocular pressure,rabbit,gives rise to eye hypotension in the rabbit
"NC1CCc2cc(O)c(O)cc2C1 (stereo not drawn) [6,7-dihydroxy-2-aminotetralin]",effect on intraocular pressure,rabbit,gives rise to eye hypotension in the rabbit
"Brc1c(NC2=NCCN2)ccc2nccnc12 [Brimonidine, reference compound]",IOP changes (mean ± SEM) in the treated eye,[1]; 0 min,0.0 ± 0.0 mmHg
same,IOP changes (mean ± SEM) in the treated eye,[1]; 30 min,−2.7 ± 0.9 mmHg
same,IOP changes (mean ± SEM) in the treated eye,[1]; 60 min,−7.8 ± 0.9 mmHg
same,IOP changes (mean ± SEM) in the treated eye,[1]; 120 min,−6.2 ± 1.4 mmHg
same,IOP changes (mean ± SEM) in the treated eye,[1]; 180 min,−3.9 ± 0.8 mmHg
same,IOP changes (mean ± SEM) in the treated eye,[1]; 240 min,−3.4 ± 0.7 mmHg
same,IOP changes (mean ± SEM) in the treated eye,[1]; 300 min,−2.4 ± 0.7 mmHg
same,IOP changes (mean ± SEM) in the treated eye,[1]; 360 min,−0.4 ± 0.6 mmHg
same,IOP changes (mean ± SEM) in the treated eye,[1]; 420 min,0.2 ± 0.3 mmHg
same,IOP changes (mean ± SEM) in the untreated eye,[1]; 0 min,0.0 ± 0.0 mmHg
same,IOP changes (mean ± SEM) in the untreated eye,[1]; 30 min,−3.2 ± 1.2 mmHg
same,IOP changes (mean ± SEM) in the untreated eye,[1]; 60 min,−8.7 ± 0.8 mmHg
same,IOP changes (mean ± SEM) in the untreated eye,[1]; 120 min,−3.3 ± 1.3 mmHg
same,IOP changes (mean ± SEM) in the untreated eye,[1]; 180 min,−1.7 ± 0.9 mmHg
same,IOP changes (mean ± SEM) in the untreated eye,[1]; 240 min,−2.1 ± 1.0 mmHg
same,IOP changes (mean ± SEM) in the untreated eye,[1]; 300 min,−0.6 ± 0.9 mmHg
same,IOP changes (mean ± SEM) in the untreated eye,[1]; 360 min,0.1 ± 0.6 mmHg
same,IOP changes (mean ± SEM) in the untreated eye,[1]; 420 min,0.0 ± 0.6 mmHg
"CN(C)C1CCc2c(ccc(O)c2O)C1 (stereo not drawn) [M-7, N,N-dimethyl-5,6-dihydroxy-2-aminotetralin]",concentration inducing eye irritation,rabbit; in vivo,0.1%
same,effect on intraocular pressure,rabbit,active as well in reducing intraocular pressure
CNCC(O)c1ccc(OC(=O)C(C)(C)C)c(OC(=O)C(C)(C)C)c1 (stereo not drawn) [Dipivefrin],ocular side effects,[2],pain in the eye and in the superciliary arch as well as corneal vascularization and opacification during long-term use
CCCN(CCc1cccs1)C1CCc2c(O)cccc2C1 (stereo not drawn) [2-(N-propyl-N-2-thienylethylamino)-5-hydroxytetralin],ocular side effects,[2],can also induce eye irritation

# — patent US6953813B1, “2-Aminotetralin derivatives for the therapy of glaucoma” (Chiesi Farmaceutici S.p.A., priority 1999, dated 2005)
